# Experimental data taken from patent publication US20120115724A1, “METHOD OF CONTROLLING UNDESIRED VEGETATION” (SYNGENTA CROP PROTECTION LLC, priority 2009, published 2012).
# Columns and labels:
# [1] = tested on: AMARE Amaranthus retroflexus; assay: Post-emergence crop and weed test (Example 15); assay type: in vivo; settings: 360 h, 30 g/ha, after 15 days, read-out: Percentage damage AMARE
# How it was run: (§1)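 Plants grown 14 days in a glasshouse (22/16 °C, 16 h light, 65% humidity) were sprayed post-emergence with active ingredient from a solvent/emulsifier stock diluted in water with 0.2% X-77. Damage was scored 15 days later on a 0–100 scale, where 100 is total damage.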
# [2] = tested on: EPHHL Euphorbia heterophylla; assay: Post-emergence crop and weed test (Example 15); assay type: in vivo; settings: 360 h, 30 g/ha, after 15 days, read-out: Percentage damage EPHHL
# How it was run: as §1
# [3] = tested on: CHEAL Chenopodium album; assay: Post-emergence crop and weed test (Example 15); assay type: in vivo; settings: 360 h, 30 g/ha, after 15 days, read-out: Percentage damage CHEAL
# How it was run: as §1
# [4] = tested on: SINAR Sinapis arvensis; assay: Post-emergence crop and weed test (Example 15); assay type: in vivo; settings: Mutarda arvensis, 360 h, 30 g/ha, after 15 days, read-out: Percentage damage SINAR
# How it was run: as §1
# [5] = tested on: SIDSP Sida spinosa; assay: Post-emergence crop and weed test (Example 15); assay type: in vivo; settings: 360 h, 30 g/ha, after 15 days, read-out: Percentage damage SIDSP
# How it was run: as §1
# [6] = tested on: IPOHE Ipomoea hederacea; assay: Post-emergence crop and weed test (Example 15); assay type: in vivo; settings: 360 h, 30 g/ha, after 15 days, read-out: Percentage damage IPOHE
# How it was run: as §1
# [7] = tested on: POLCO Polygonum convolvulus; assay: Post-emergence crop and weed test (Example 15); assay type: in vivo; settings: Fallopia convolvulus, 360 h, 30 g/ha, after 15 days, read-out: Percentage damage POLCO
# How it was run: as §1
# [8] = tested on: ABUTH Abutilon theophrasti; assay: Post-emergence crop and weed test (Example 15); assay type: in vivo; settings: 360 h, 30 g/ha, after 15 days, read-out: Percentage damage ABUTH
# How it was run: as §1
# [9] = tested on: XANST Xanthium strumarium; assay: Post-emergence crop and weed test (Example 15); assay type: in vivo; settings: 360 h, 30 g/ha, after 15 days, read-out: Percentage damage XANST
# How it was run: as §1
# [10] = tested on: VERPE Veronica persica; assay: Post-emergence crop and weed test (Example 15); assay type: in vivo; settings: 360 h, 30 g/ha, after 15 days, read-out: Percentage damage VERPE
# How it was run: as §1
# [11] = tested on: GLXMA Soybean; assay: Post-emergence crop and weed test (Example 15); assay type: in vivo; settings: Glycine max, 360 h, 30 g/ha, after 15 days, read-out: Percentage damage GLXMA
# How it was run: as §1
# [12] = tested on: KCHSC Kochia scoparia; assay: Post-emergence crop and weed test (Example 15); assay type: in vivo; settings: Bassia scoparia, 360 h, 30 g/ha, after 15 days, read-out: Percentage damage KCHSC
# How it was run: as §1
# [13] = tested on: GALAP Galium aparine; assay: Post-emergence crop and weed test (Example 15); assay type: in vivo; settings: 360 h, 30 g/ha, after 15 days, read-out: Percentage damage GALAP
# How it was run: as §1
# [14] = tested on: Solanum nigrum (SOLNI); assay: Pre-emergence biological efficacy (Example 13); assay type: in vivo; settings: Solanum nigrum, 312 h; pre-emergence, 1,000 g/ha, after 13 days; read-out: Percentage damage SOLNI
# How it was run: (§2)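 Pots sown and sprayed one day later, pre-emergence, at 250 or 1000 g/ha in acetone/water with 0.5% Tween 20. Plants kept in glasshouse at 24/16 °C day/night, 14 h light, 65% humidity. Damage scored visually after 13 days on a 0–100 scale (100 = total damage).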
# [15] = tested on: Setaria faberi (SETFA); assay: Pre-emergence biological efficacy (Example 13); assay type: in vivo; settings: Setaria faberi, 312 h; pre-emergence, 1,000 g/ha, after 13 days; read-out: Percentage damage SETFA
# How it was run: as §2
# [16] = tested on: Echinochloa crus-galli (ECHCG); assay: Pre-emergence biological efficacy (Example 13); assay type: in vivo; settings: Echinochloa crus-galli, 312 h; pre-emergence, 1,000 g/ha, after 13 days; read-out: Percentage damage ECHCG
# How it was run: as §2
# [17] = tested on: Amaranthus retroflexus (AMARE); assay: Pre-emergence biological efficacy (Example 13); assay type: in vivo; settings: Amaranthus retroflexus, 312 h; pre-emergence, 1,000 g/ha, after 13 days; read-out: Percentage damage AMARE
# How it was run: as §2
# [18] = tested on: Alopecurus myosuroides (ALOMY); assay: Pre-emergence biological efficacy (Example 13); assay type: in vivo; settings: Alopecurus myosuroides, 312 h; pre-emergence, 1,000 g/ha, after 13 days; read-out: Percentage damage ALOMY
# How it was run: as §2
# [19] = tested on: Solanum nigrum (SOLNI); assay: Post-emergence biological efficacy (Example 14); assay type: in vivo; settings: Solanum nigrum, 312 h; post-emergence, 1,000 g/ha, after 13 days; read-out: Percentage damage SOLNI
# How it was run: (§3)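 Pots were sprayed 8 days after sowing at 250 or 1000 g/ha, applied from acetone/water (50:50) with 0.5% Tween 20. Plants were grown in a glasshouse at 24/16° C. day/night, 14 h light and 65% humidity. Damage was scored 13 days later on a 0–100 scale, where 100 is total damage.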
# [20] = tested on: Setaria faberi (SETFA); assay: Post-emergence biological efficacy (Example 14); assay type: in vivo; settings: Setaria faberi, 312 h; post-emergence, 1,000 g/ha, after 13 days; read-out: Percentage damage SETFA
# How it was run: as §3
# [21] = tested on: Ipomea hederaceae (IPOHE); assay: Post-emergence biological efficacy (Example 14); assay type: in vivo; settings: Ipomoea hederacea, 312 h; post-emergence, 1,000 g/ha, after 13 days; read-out: Percentage damage IPOHE
# How it was run: as §3
# [22] = tested on: Echinochloa crus-galli (ECHCG); assay: Post-emergence biological efficacy (Example 14); assay type: in vivo; settings: Echinochloa crus-galli, 312 h; post-emergence, 1,000 g/ha, after 13 days; read-out: Percentage damage ECHCG
# How it was run: as §3
# [23] = tested on: Amaranthus retroflexus (AMARE); assay: Post-emergence biological efficacy (Example 14); assay type: in vivo; settings: Amaranthus retroflexus, 312 h; post-emergence, 1,000 g/ha, after 13 days; read-out: Percentage damage AMARE
# How it was run: as §3
# [24] = tested on: Alopecurus myosuroides (ALOMY); assay: Post-emergence biological efficacy (Example 14); assay type: in vivo; settings: Alopecurus myosuroides, 312 h; post-emergence, 1,000 g/ha, after 13 days; read-out: Percentage damage ALOMY
# How it was run: as §3
compound,measurement,setting,value
C=Cc1c(N)nc(-c2ccc(Cl)c(N(C)C)c2F)nc1C(=O)OC [Compound 1],pest or weed control at 30 g/ha,[1],100%
same,pest or weed control at 30 g/ha,[2],90%
same,pest or weed control at 30 g/ha,[3],90%
same,pest or weed control at 30 g/ha,[4],10%
same,pest or weed control at 30 g/ha,[5],60%
same,pest or weed control at 30 g/ha,[6],40%
same,pest or weed control at 30 g/ha,[7],90%
same,pest or weed control at 30 g/ha,[8],90%
same,pest or weed control at 30 g/ha,[9],100%
same,pest or weed control at 30 g/ha,[10],80%
same,plant injury at 30 g/ha,[11],0%
same,pest or weed control at 30 g/ha,[12],80%
same,pest or weed control at 30 g/ha,[13],20%
same,melting point,,136 to 137 °C
same,pest or weed control at 1000 g/ha,[14],100%
same,pest or weed control at 1000 g/ha,[15],90%
same,pest or weed control at 1000 g/ha,[16],90%
same,pest or weed control at 1000 g/ha,[17],100%
same,pest or weed control at 1000 g/ha,[18],80%
same,pest or weed control at 1000 g/ha,[19],100%
same,pest or weed control at 1000 g/ha,[20],100%
same,pest or weed control at 1000 g/ha,[21],90%
same,pest or weed control at 1000 g/ha,[22],100%
same,pest or weed control at 1000 g/ha,[23],100%
same,pest or weed control at 1000 g/ha,[24],90%
